Experimental data: patent US12180198B2, “Ribocil C antibiotics effective for Gram-negative pathogens” (THE BOARD OF TRUSTEES OF THE UNIVERSITY OF ILLINOIS, priority 2018, dated 2024)
Structures can show the parent of a compound that is named as a salt. Where two headings read alike, the source gives them in different places.

Key:
[1] = tested on: K. pneumoniae BAA-2146; assay: Bioactivity against exemplary strains of bacteria (Table 5A); type: cell-based; conditions: Strain 4: K. pneumoniae BAA-2146
[2] = tested on: A. baumannii BAA-2093; assay: as above; type: cell-based; conditions: Strain 3: A. baumannii BAA-2093
[3] = tested on: E. coli BAA-2469; assay: as above; type: cell-based; design: unit not given here; conditions: Strain 2: E. coli BAA-2469
[4] = tested on: A. baumannii F19521; assay: MIC, micro-dilution broth method; type: cell-based; conditions: Acinetobacter baumannii; A. baumannii F19521; read-out: MIC
Description: (§1) Compounds were evaluated against a panel of Gram-positive and Gram-negative organisms. MIC values were determined using the micro-dilution broth method as outlined by the Clinical and Laboratory Standards Institute (clsi.org/) and are listed in […]. All experiments were performed in biological triplicate.
(§2) Antimicrobial susceptibility tests. Susceptibility testing was performed in biological triplicate, using the micro-dilution broth method as outlined by the Clinical and Laboratory Standards Institute. Bacteria were cultured with cation-adjusted Muller-Hinton broth (Sigma-Aldrich, Cat #90922) in round-bottom 96-well plates (Corning, Cat #3788). Human serum (pooled gender, 0.2 μm filtered) was purchased from BioIVT (Hicksville, NY).

[5] = tested on: E. coli AR-0346; assay: MIC, micro-dilution broth method; type: cell-based; conditions: Escherichia coli, AR0346; E. coli AR-0346; read-out: MIC
Description: as §1, §2

[6] = tested on: A. baumannii WO22; assay: MIC, micro-dilution broth method; type: cell-based; conditions: Acinetobacter baumannii; A. baumannii WO22; read-out: MIC
Description: as §1, §2

[7] = tested on: E. cloacae BAA-2468; assay: MIC, micro-dilution broth method; type: cell-based; conditions: Enterobacter cloacae, BAA2468; E. cloacae BAA-2468; read-out: MIC
Description: as §1, §2

[8] = tested on: E. coli BAA-2469; assay: MIC, micro-dilution broth method; type: cell-based; conditions: Escherichia coli, BAA2469; E. coli BAA-2469; read-out: MIC
Description: as §1, §2

[9] = tested on: E. coli AR-0495; assay: MIC, micro-dilution broth method; type: cell-based; conditions: Escherichia coli, AR0495; E. coli AR-0495; read-out: MIC
Description: as §1, §2

[10] = tested on: E. coli AR-0493; assay: MIC, micro-dilution broth method; type: cell-based; conditions: Escherichia coli, AR0493; E. coli AR-0493; read-out: MIC
Description: as §1, §2

[11] = tested on: K. pneumoniae M67297; assay: MIC, micro-dilution broth method; type: cell-based; conditions: Klebsiella pneumoniae; K. pneumoniae M67297; read-out: MIC
Description: as §1, §2

[12] = tested on: E. coli ΔrfaC JW3596; assay: MIC, micro-dilution broth method; type: cell-based; conditions: Escherichia coli
Description: as §1, §2

[13] = tested on: K. pneumoniae BAA-1705; assay: MIC, micro-dilution broth method; type: cell-based; conditions: Klebsiella pneumoniae, BAA1705; K. pneumoniae BAA-1705; read-out: MIC
Description: as §1, §2

[14] = tested on: A. baumannii KB304; assay: MIC, micro-dilution broth method; type: cell-based; conditions: Acinetobacter baumannii; A. baumannii KB304; read-out: MIC
Description: as §1, §2

[15] = tested on: S. aureus ATCC 29213; assay: MIC, micro-dilution broth method; type: cell-based; conditions: Staphylococcus aureus, ATCC29213, S. aureus ATCC 29213
Description: as §1, §2

[16] = tested on: K. pneumoniae S20595; assay: MIC, micro-dilution broth method; type: cell-based; conditions: Klebsiella pneumoniae; K. pneumoniae S20595; read-out: MIC
Description: as §1, §2

[17] = tested on: K. pneumoniae BAA-2342; assay: MIC, micro-dilution broth method; type: cell-based; conditions: Klebsiella pneumoniae, BAA2342; K. pneumoniae BAA-2342; read-out: MIC
Description: as §1, §2

[18] = tested on: A. baumannii KB343; assay: MIC, micro-dilution broth method; type: cell-based; conditions: Acinetobacter baumannii; A. baumannii KB343; read-out: MIC
Description: as §1, §2

[19] = tested on: E. coli MG1655; assay: MIC, micro-dilution broth method; type: cell-based; conditions: Escherichia coli
Description: as §1, §2

[20] = tested on: A. baumannii M13100; assay: MIC, micro-dilution broth method; type: cell-based; conditions: Acinetobacter baumannii; A. baumannii M13100; read-out: MIC
Description: as §1, §2

[21] = tested on: E. coli BAA-2471; assay: MIC, micro-dilution broth method; type: cell-based; conditions: Escherichia coli, BAA2471; E. coli BAA-2471; read-out: MIC
Description: as §1, §2

[22] = tested on: A. baumannii KB357; assay: MIC, micro-dilution broth method; type: cell-based; conditions: Acinetobacter baumannii; A. baumannii KB357; read-out: MIC
Description: as §1, §2

[23] = tested on: K. pneumoniae M14723; assay: MIC, micro-dilution broth method; type: cell-based; conditions: Klebsiella pneumoniae; K. pneumoniae M14723; read-out: MIC
Description: as §1, §2

[24] = tested on: K. pneumoniae BAA-2473; assay: MIC, micro-dilution broth method; type: cell-based; conditions: Klebsiella pneumoniae, BAA2473; K. pneumoniae BAA-2473; read-out: MIC
Description: as §1, §2

[25] = tested on: E. coli ΔtolC JW5503; assay: MIC, micro-dilution broth method; type: cell-based; conditions: Escherichia coli
Description: as §1, §2

[26] = tested on: K. pneumoniae AR-0347; assay: MIC, micro-dilution broth method; type: cell-based; conditions: Klebsiella pneumoniae, AR0347; K. pneumoniae AR-0347; read-out: MIC
Description: as §1, §2

[27] = tested on: K. pneumoniae S47889; assay: MIC, micro-dilution broth method; type: cell-based; conditions: Klebsiella pneumoniae; K. pneumoniae S47889; read-out: MIC
Description: as §1, §2

[28] = tested on: A. baumannii W41979; assay: MIC, micro-dilution broth method; type: cell-based; conditions: Acinetobacter baumannii; A. baumannii W41979; read-out: MIC
Description: as §1, §2

[29] = tested on: K. pneumoniae BAA-2472; assay: MIC, micro-dilution broth method; type: cell-based; conditions: Klebsiella pneumoniae, BAA2472; K. pneumoniae BAA-2472; read-out: MIC
Description: as §1, §2

[30] = tested on: E. cloacae S28901.1; assay: MIC, micro-dilution broth method; type: cell-based; conditions: Enterobacter cloacae; E. cloacae S28901.1; read-out: MIC
Description: as §1, §2

[31] = tested on: E. cloacae BAA-2341; assay: MIC, micro-dilution broth method; type: cell-based; conditions: Enterobacter cloacae, BAA2341; E. cloacae BAA-2341; read-out: MIC
Description: as §1, §2

[32] = tested on: E. coli AR-0349; assay: MIC, micro-dilution broth method; type: cell-based; conditions: Escherichia coli, AR0349; E. coli AR-0349; read-out: MIC
Description: as §1, §2

[33] = tested on: K. pneumoniae M67198; assay: MIC, micro-dilution broth method; type: cell-based; conditions: Klebsiella pneumoniae; K. pneumoniae M67198; read-out: MIC
Description: as §1, §2

[34] = tested on: K. pneumoniae BAA-2470; assay: MIC, micro-dilution broth method; type: cell-based; conditions: Klebsiella pneumoniae, BAA2470; K. pneumoniae BAA-2470; read-out: MIC
Description: as §1, §2

[35] = tested on: E. coli strains with intact outer membranes; assay: MIC, micro-dilution broth method (text summary); type: cell-based; conditions: E. coli strains with intact outer membranes
Description: FIG. 2. Antimicrobial activity of Debio-1452 and derivatives. MIC values were determined using the micro-dilution broth method as outlined by the Clinical and Laboratory Standards Institute (clsi.org/). All experiments were performed in biological triplicate.
as §2

[36] = Mouse MTD; conditions: mice, IP injection, single dose, monitored 2 weeks
Description: The protocol was approved by the IACUC at the University of Illinois at Urbana-Champaign (Protocol Number: 16144). In these studies, 10- to 12-week-old female C57BL/6 mice purchased from Charles River were used. The maximum tolerate dose (MTD) of a single compound was determined first. […] For multiple doses, the compound was given by daily IP for 5 consecutive days and mice were monitored for signs of toxicity for 1 month. MTD was the highest dosage with acceptable toxicity (e.g., <20% weight loss). Single dose MTDs were initially determined.

[37] = tested on: H. sapiens IMR-90; assay: Cell viability, Alamar Blue; type: cell-based; conditions: Homo sapiens, IMR-90, read-out: % inhibition at 30 μM
Description: Cell culture. IMR90 cells were obtained from ATCC. IMR90 cells were grown in EMEM with 10% fetal bovine serum (Gemini Benchmark, Cat #100-106), 100 U/mL penicillin, and 100 μg/mL streptomycin. All cells were cultured at 37° C. in a 5% CO2 environment. Media was prepared by the University of Illinois School of Chemical Sciences Cell Media Facility. Sex and age of cell lines: IMR90 ([…]).
Cell viability. Cells seeded (IMR90: 5,000 cells/well) a 96-well plate (Greiner Bio-One, Cat #655180) and were allowed to attach overnight. Cells were treated with investigational compounds in DMSO (30 μM, 1% DMSO final, 100 μL/well). Raptinal (100 μM) was used as a dead control. After 24 h post-treatment, media was exchanged with compound-free media. After 72 h post-treatment, cell viability was assessed using the Alamar Blue method. Stock Alamar Blue solution [10 μL, 440 μM resazurin (Sigma-Aldrich, Cat #R7017) in sterile 1×PBS] was added to each well, and plate was incubated […]. Conversion of Alamar Blue was measured with plate reader (SpectraMax M3, Molecular Devices) by fluorescence (ex 555 nm, em 585 nm, cutoff 570 nm, autogain). Percent death was determined by normalizing to DMSO-treated cells and raptinal-treated cells.

`NCc1cnc(-n2cnc(CN3CCCC(c4nc(O)cc(-c5cccs5)n4)C3)c2)nc1` (stereo not drawn) [R13a] showed a Bioactivity [1] of 64, a Bioactivity [2] of over 128 and a Bioactivity [3] of 16.
`Cc1c(CN(C)C(=O)/C=C/c2cnc3c(c2)CC(CN)C(=O)N3)oc2ccccc12.Cl` (stereo not drawn) [compound 2, (E)-3-(6-(aminomethyl)-7-oxo-5,6,7,8-tetrahydro-1,8-naphthyridin-3-yl)-N-methyl-N-((3-methylbenzofuran-2-yl)methyl)acrylamide hydrochloride] gave an MIC [4] of 16 µg/mL, an MIC [5] of 4 µg/mL and an MIC [6] of over 64 µg/mL. For the same molecule, the MIC [7] was 8 µg/mL, the MIC [8] was 2 µg/mL and the MIC [9] was 2 µg/mL. For the same molecule, the MIC [10] was 4 µg/mL, the MIC [11] was 32 µg/mL and the MIC [12] was 0.5 µg/mL. For the same molecule, the MIC [13] was 16 µg/mL, the MIC [14] was 64 µg/mL and the MIC ([15]; read-out: MIC) was 0.03 µg/mL. The MIC [16] was 16 µg/mL, the MIC [17] was 16 µg/mL and the MIC [18] was over 64 µg/mL. The MIC ([19]; E. coli MG1655, read-out: MIC) was 8 µg/mL, the MIC [20] was 16 µg/mL and the MIC [21] was 4 µg/mL. For the same molecule, the MIC [22] was over 64 µg/mL, the MIC [23] was 16 µg/mL and the MIC [24] was 16 µg/mL. It also gave an MIC [25] of 0.125 µg/mL, an MIC [26] of 8 µg/mL and an MIC [27] of 8 µg/mL. It also gave an MIC [28] of 16 µg/mL, an MIC [29] of 16 µg/mL and an MIC [30] of 8 µg/mL. The MIC [31] was 16 µg/mL, the MIC [32] was 2 µg/mL and the MIC [33] was 32 µg/mL. For the same molecule, the MIC [34] was 4 µg/mL and the “antibacterial activity (in words)” value [35] was “active”.
Molecule `NCCNc1nc(/C=C/c2ccc(Cl)cc2)nc2cc3ccccc3cc12` [Z7, (E)-N^1-(2-(4-chlorostyryl)benzo[g]quinazolin-4-yl)ethane-1,2-diamine] has a Bioactivity [1] of over 32, a Bioactivity [2] of 2 and a Bioactivity [3] of 4.
Work on `Cc1ccc2nc(/C=C/c3ccc(Cl)cc3)nc(NCCN)c2c1` [Z14, (E)-N^1-(2-(4-chlorostyryl)-6-methylquinazolin-4-yl)ethane-1,2-diamine] yielded a Bioactivity [1] of 64, a Bioactivity [2] of 8 and a Bioactivity [3] of 8.
`CCN(CC)CCNc1nc(/C=C/c2ccc(Cl)cc2)nc2cc3ccccc3cc12` [Z3, Zantrin Z3, reference compound] showed a Bioactivity [1] of over 64, a Bioactivity [2] of 32 and a Bioactivity [3] of over 64.
For `Cc1c(CN(C)C(=O)/C=C/c2cnc3c(c2)CC(CCN)C(=O)N3)oc2ccccc12` (stereo not drawn) [compound 3, (E)-3-(6-(aminoethyl)-7-oxo-5,6,7,8-tetrahydro-1,8-naphthyridin-3-yl)-N-methyl-N-((3-methylbenzofuran-2-yl)methyl)acrylamide hydrochloride], the MIC [12] was 0.5 µg/mL, the MIC [15] was 0.125 µg/mL and the MIC ([19]; MG1655) was 8 µg/mL. The MIC [25] was 0.062 µg/mL, the “single dose well tolerated” value [36] was 100 mg/kg and the inhibition at 30 µM [37] was 12%. The “antibacterial activity (in words)” value [35] was “active”.
